# Measured values taken from patent US7662404B2, “Transdermal delivery system for dried particulate or lyophilized peptides and polypeptides” (TransPharma Medical Ltd., priority 2002, dated 2010).
# Where “and” joins values, the source holds several entries; their conditions need not be identical. Equal entries are not always repeated. Where two headings read alike, the source gives them in different places.
# Legend:
# [1] = Plasma hPTH (1-34) from different printed patch formulations in pigs (Example 12); format: in vivo
# Experimental: The experiment was performed as follows: Group 1: Each pig underwent two ViaDerm applications (150 micro-channels/cm^2) on one site on the back. A 100 μg hPTH (1-34) printed patch was placed over the application area and covered with Tegaderm. Total delivery area=1.4 cm (total 3 pigs). Formulation: hPTH (1-34) in water for injection (WFI), pH=6. Group 2: Each pig underwent two ViaDerm applications (150 micro-channels/cm^2) on one site on the back. A 100 μg hPTH (1-34) printed patch was placed over the application area and covered with Tegaderm. Total delivery area=1.4 cm^2 (total 3 pigs). Formulation: hPTH (1-34): Sucrose (1:5.5) in 0.72% acetic acid, pH=4. Group 3: Each pig underwent two ViaDerm applications (150 micro-channels/cm^2) on one site on the back. A 100 μg hPTH (1-34) printed patch was placed over the application area and covered with Tegaderm. Total delivery area=1.4 cm^2 (total 3 pigs). Formulation: hPTH (1-34): Trehalose (1:11) in 0.4% citric acid, pH=4. Group 4: Each pig was injected SC with 0.2 ml (20 μg) of hPTH (1-34) diluted to a 100 μg/ml solution with saline (total 3 pigs).
# [2] = Plasma hPTH (1-34) in female adult healthy human volunteers, ViaDerm and printed patches or SC (Example 13); format: in vivo; set-up: AUC (individual subjects): unit not given here; conditions: for Cmax (individual subjects): women; for Cmax (individual subjects) / AUC (individual subjects) / AUC: 12 h; for AUC / Tmax / Cmax: female, human, plasma
# Experimental: Transdermal drug delivery study of hPTH (1-34) in four female adult healthy human volunteers was performed using ViaDerm and printed patches.
# To evaluate the transdermal delivery of hPTH (1-34), printed patches containing 100 μg or 200 μg hPTH (1-34) (FORTEO®, Teriparatide purchased from Ely Lilly, Indianapolis, Ind., USA) were prepared. Patch area was 1.44 cm^2.
# ViaDerm parameters: electrode array of 75 or 100 micro-channels/cm^2; ViaDerm was applied two or three times generating micro-channels at a density of 150 or 300 micro-channels/cm^2; Voltage: 290 volts, constant voltage; Burst length: 5000 μsec; Maximal current: 50 mA.
# (§1) Each female adult received five treatments of hPTH (1-34) with a minimum of 2 day clearance between treatments. The treatments were as follows: • 1. Three ViaDerm applications (final density of 300 micro-channels/cm^2) on one site of the upper arm. Two printed patches, each containing 100 μg hPTH (1-34), were placed over the application area (each for 6 hours). • 2. Two ViaDerm applications (final density of 150 micro-channels/cm^2) on one site of the upper arm. Two printed patches, each containing 200 μg hPTH (1-34), were placed over the application area. • 3. Three ViaDerm applications (final density of 300 micro-channels/cm^2) on one site of the upper arm. Two printed patches, each containing 200 μg hPTH (1-34), were placed over the application area. • 4. Subcutaneous (SC) injection of 20 μg hPTH (1-34) (FORTEO®, Teriparatide was purchased from Ely Lilly, Indianapolis, Ind., USA). • 5. SC injection of 60 μg hPTH (1-34) (FORTEO®).
# (§2) Plasma hPTH (1-34), calcium ions and phosphate ions were determined by Eliza using commercial kits.
# [3] = tested on: plasma calcium ions and phosphorous; assay: Plasma calcium ions and phosphorus in women after hPTH (1-34) (Example 13); format: in vivo, human; conditions: four women, all transdermal and SC treatments
# Experimental: as §1, §2
# [4] = Plasma hPTH (1-34) in pigs as a function of patch application time (Example 14); format: in vivo; conditions: male, large white, pig; for Cmax: read-out: Cmax AVG ± SD; for F rel: topical or ocular, compared to SC, read-out: % BIO AVG ± SD
# Experimental: A printed patch containing 90 μg of hPTH (1-34) was placed over the application area and covered with Tegaderm. The patch was removed 1 hour, 1.5 hours, 2 hours or 8 hours after application, and the skin site was gently wiped to remove residual peptide. As a control group, pigs were injected s.c. with 0.2 ml FORTEO® (hPTH (1-34) purchased from Ely Lilly, Indianapolis, Ind., USA; 250 μg/ml) diluted to 100 μg/ml in the dorsal neck area (final dose was 20 μg per animal). Formulation: hPTH (1-34) (10 mg/ml): Trehalose (110 mg/ml) in 50 mM acetic acid, pH=4.
# To determine the amount of hPTH(1-34) delivered to the blood of the treated pigs, blood samples were withdrawn at the indicated time points and the amount of hPTH(1-34) was measured by an ELISA kit (Immutopics, San-Clemente, Calif.).
compound,measurement,setting,value
CC[C@H](C)[C@H](NC(=O)[C@H](CCC(=O)O)NC(=O)[C@H](CO)NC(=O)[C@@H](NC(=O)[C@@H](N)CO)C(C)C)C(=O)N[C@@H](CCC(N)=O)C(=O)N[C@@H](CC(C)C)C(=O)N[C@@H](CCSC)C(=O)N[C@@H](Cc1cnc[nH]1)C(=O)N[C@@H](CC(N)=O)C(=O)N[C@@H](CC(C)C)C(=O)NCC(=O)N[C@@H](CCCCN)C(=O)N[C@@H](Cc1cnc[nH]1)C(=O)N[C@@H](CC(C)C)C(=O)N[C@@H](CC(N)=O)C(=O)N[C@@H](CO)C(=O)N[C@@H](CCSC)C(=O)N[C@@H](CCC(=O)O)C(=O)N[C@@H](CCCN=C(N)N)C(=O)N[C@H](C(=O)N[C@@H](CCC(=O)O)C(=O)N[C@@H](Cc1c[nH]c2ccccc12)C(=O)N[C@@H](CC(C)C)C(=O)N[C@@H](CCCN=C(N)N)C(=O)N[C@@H](CCCCN)C(=O)N[C@@H](CCCCN)C(=O)N[C@@H](CC(C)C)C(=O)N[C@@H](CCC(N)=O)C(=O)N[C@@H](CC(=O)O)C(=O)N[C@H](C(=O)N[C@@H](Cc1cnc[nH]1)C(=O)N[C@@H](CC(N)=O)C(=O)N[C@@H](Cc1ccccc1)C(=O)O)C(C)C)C(C)C [hPTH (1-34)],Amount delivered,[1]; S.C. 20 ug,20 µg
same,% bio,[1]; S.C. 20 ug (reference),100%
same,AUC,"[1]; pig, plasma, sc, S.C. 20 ug",1.16 ± 0.761 ng·h/mL
same,Cmax,"[1]; pig, plasma, sc, S.C. 20 ug, neck",1.08 ng/mL
same,Cmax (individual subjects),"[2]; T-1: 300 micro-channels/cm^2, 2 printed patches each 100 μg (dose 200 ug)",0.094366 ng/mL and 0.394054 ng/mL and 0.437693 ng/mL and 0.39756 ng/mL
same,AUC (individual subjects),"[2]; T-1: 300 micro-channels/cm^2, 2 printed patches each 100 μg",346 and 1340 and 1097 and 1067
same,Cmax AVG,"[2]; T-1: 300 micro-channels/cm^2, 2 printed patches each 100 μg, mean of 4 women",0.330918 ng/mL
same,Cmax (individual subjects),"[2]; T-2: 150 micro-channels/cm^2, 2 printed patches each 200 μg (dose 400 ug)",0.072528 ng/mL and 0.463893 ng/mL and 1.293464 ng/mL and 0.739311 ng/mL
same,AUC (individual subjects),"[2]; T-2: 150 micro-channels/cm^2, 2 printed patches each 200 μg",398 and 1498 and 3743 and 2128
same,Cmax AVG,"[2]; T-2: 150 micro-channels/cm^2, 2 printed patches each 200 μg, mean of 4 women",0.642299 ng/mL
same,Cmax (individual subjects),"[2]; T-3: 300 micro-channels/cm^2, 2 printed patches each 200 μg (dose 400 ug)",0.296887 ng/mL and 0.534872 ng/mL and 1.304179 ng/mL and 0.46945 ng/mL
same,AUC (individual subjects),"[2]; T-3: 300 micro-channels/cm^2, 2 printed patches each 200 μg",886 and 1251 and 4649 and 1327
same,Cmax AVG,"[2]; T-3: 300 micro-channels/cm^2, 2 printed patches each 200 μg, mean of 4 women",0.651347 ng/mL
same,Tmax (individual subjects),[2]; T-4: SC injection of 20 μg,6.0 h and 0.3 h and 0.5 h
same,AUC (individual subjects),[2]; T-4: SC injection of 20 μg,172 and 158 and 176
same,Cmax AVG,"[2]; T-4: SC injection of 20 μg, mean of 4 women",0.029291 ng/mL
same,Cmax (individual subjects),[2]; T-4: SC injection of 20 μg,0.012196 ng/mL and 0.037556 ng/mL and 0.02935 ng/mL and 0.038062 ng/mL
same,Tmax (individual subjects),[2]; T-5: SC injection of 60 μg,0.5 h
same,AUC (individual subjects),[2]; T-5: SC injection of 60 μg,84 and 100 and 474 and 399
same,Cmax AVG,"[2]; T-5: SC injection of 60 μg, mean of 4 women",0.111514 ng/mL
same,Cmax (individual subjects),[2]; T-5: SC injection of 60 μg,0.059209 ng/mL and 0.066482 ng/mL and 0.185324 ng/mL and 0.13504 ng/mL
same,AUC,"[2]; 100 ug, T-1: 300 micro-channels/cm^2, 2 printed patches each 100 μg, mean of 4 women, read-out: AUC AVG",0.963 ng·h/mL
same,Tmax,"[2]; 100 ug, T-1: 300 micro-channels/cm^2, 2 printed patches each 100 μg, read-out: Tmax (individual subjects)",1 h
same,Cmax,"[2]; other: transdermal printed patch on ViaDerm-treated skin, 100 ug, T-1: 300 micro-channels/cm^2, 2 printed patches each 100 μg, mean of 4 women",0.331 ng/mL
same,Tmax,"[2]; other: transdermal printed patch on ViaDerm-treated skin, 100 ug, T-1: 300 micro-channels/cm^2, 2 printed patches each 100 μg, mean of 4 women, read-out: Tmax AVG",1.5 h
same,AUC,"[2]; other: transdermal printed patch on ViaDerm-treated skin, 200 ug, T-2: 150 micro-channels/cm^2, 2 printed patches each 200 μg, mean of 4 women, read-out: AUC AVG",1.94 ng·h/mL
same,Cmax,"[2]; other: transdermal printed patch on ViaDerm-treated skin, 200 ug, T-2: 150 micro-channels/cm^2, 2 printed patches each 200 μg, mean of 4 women",0.642 ng/mL
same,Tmax,"[2]; other: transdermal printed patch on ViaDerm-treated skin, 200 ug, T-2: 150 micro-channels/cm^2, 2 printed patches each 200 μg, mean of 4 women, read-out: Tmax AVG",2.1 h
same,Tmax,"[2]; other: transdermal printed patch on ViaDerm-treated skin, 200 ug, T-2: 150 micro-channels/cm^2, 2 printed patches each 200 μg, read-out: Tmax (individual subjects)",1.5 h
same,AUC,"[2]; other: transdermal printed patch on ViaDerm-treated skin, 200 ug, T-3: 300 micro-channels/cm^2, 2 printed patches each 200 μg, mean of 4 women, read-out: AUC AVG",2.03 ng·h/mL
same,Cmax,"[2]; other: transdermal printed patch on ViaDerm-treated skin, 200 ug, T-3: 300 micro-channels/cm^2, 2 printed patches each 200 μg, mean of 4 women",0.651 ng/mL
same,Tmax,"[2]; other: transdermal printed patch on ViaDerm-treated skin, 200 ug, T-3: 300 micro-channels/cm^2, 2 printed patches each 200 μg, mean of 4 women, read-out: Tmax AVG",2 h
same,Tmax,"[2]; other: transdermal printed patch on ViaDerm-treated skin, 200 ug, T-3: 300 micro-channels/cm^2, 2 printed patches each 200 μg, read-out: Tmax (individual subjects)",2.5 h
same,AUC,"[2]; sc, 20 ug, T-4: SC injection of 20 μg, mean of 4 women, read-out: AUC AVG",0.152 ng·h/mL
same,AUC,"[2]; sc, 20 ug, T-4: SC injection of 20 μg, read-out: AUC (individual subjects)",0.103 ng·h/mL
same,Cmax,"[2]; sc, 20 ug, T-4: SC injection of 20 μg, mean of 4 women",0.022 ng/mL
same,Tmax,"[2]; sc, 20 ug, T-4: SC injection of 20 μg, mean of 4 women, read-out: Tmax AVG",1.8 h
same,AUC,"[2]; sc, 60 ug, T-5: SC injection of 60 μg, mean of 4 women, read-out: AUC AVG",0.264 ng·h/mL
same,Cmax,"[2]; sc, 60 ug, T-5: SC injection of 60 μg, mean of 4 women",0.115 ng/mL
same,Tmax,"[2]; sc, 60 ug, T-5: SC injection of 60 μg, mean of 4 women, read-out: Tmax AVG",0.8 h
same,Tmax,"[2]; sc, 60 ug, T-5: SC injection of 60 μg, read-out: Tmax (individual subjects)",1 h
same,plasma concentrations of calcium ions,[3],elevation of calcium ions
same,plasma concentrations of phosphorus,[3],decrease of phosphorous
same,Cmax,"[4]; 90 ug, TD 90 ug printed patch, removed after 1 h",0.0772 ± 0.0358 ng/mL
same,Cmax,"[4]; 90 ug, TD 90 ug printed patch, removed after 1.5 h",0.179 ± 0.0658 ng/mL
same,Cmax,"[4]; 90 ug, TD 90 ug printed patch, removed after 2 h",0.137 ± 0.0431 ng/mL
same,Cmax,"[4]; 90 ug, TD 90 ug printed patch, removed after 8 h",0.128 ± 0.0524 ng/mL
same,AUC,"[4]; 90 ug, TD 90 ug, 1 h",0.232 ± 0.0418 ng·h/mL
same,AUC,"[4]; 90 ug, TD 90 ug, 1.5 h",0.296 ± 0.0716 ng·h/mL
same,AUC,"[4]; 90 ug, TD 90 ug, 2 h",0.272 ± 0.0545 ng·h/mL
same,AUC,"[4]; 90 ug, TD 90 ug, 8 h",0.331 ng·h/mL
same,AUC,"[4]; sc, 20 ug, SC 20 ug",0.237 ± 0.0273 ng·h/mL
same,Cmax,"[4]; sc, 20 ug, SC 20 ug",0.289 ± 0.0525 ng/mL
same,F rel,"[4]; 90 ug, TD 90 ug, 1 h",22.4 ± 6.97%
same,F rel,"[4]; 90 ug, TD 90 ug, 1.5 h",28.5 ± 9.36%
same,F rel,"[4]; 90 ug, TD 90 ug, 2 h",26.2 ± 8.42%
same,F rel,"[4]; 90 ug, TD 90 ug, 8 h",31.6 ± 9.03%
